Source: paper PMC2424174, “Suppression of Tumor Growth and Angiogenesis by a Specific Antagonist of the Cell-Surface Expressed Nucleolin” (PLoS ONE, 2008)

How the values were obtained:
[1] = tested on: MDA-MB-231 cells; assay: BrdU incorporation and cell cycle analysis; type: cell-based, human; details: 10 µM HB-19, 48 hours, 10% FBS, compared to untreated cells
Procedure: Figure 5 Cell cycle perturbations induced by HB-19 treatment. (A) Analysis of cell cycle parameters in HB-19 treated cells. MDA-MB-231 cells were cultured for 48 hours in medium without FBS (starvation) or in medium containing 10% FBS supplemented or not with 10 µM HB-19. DNA synthesis was quantified after BrdU incorporation and staining with anti-BrdU antibody and 7-AAD, by FACScan analysis. The histograms indicate the relative amount of cells in G1, S and G2/M cell phases. […] Serum starved MDA-MB-231 cells were stimulated with 10% FBS in the absence or presence of 2, 5, and 10 µM of HB-19. Five minutes after serum stimulation, cells were lysed directly in electrophoresis sample buffer and processed for immunoblotting using anti-phospho-p42/44 ERK1/2 and anti-p42/44 ERK antibodies. NS stands for non-stimulated cells.
Cell cycle analysis was performed using the FITC-BrdU flow kit (#559619) kit from BD Bioscience Pharmingen, according to the manufacturer's instructions. Briefly, MDA-MB-231 cells (1×10^5) were seeded in 12-multiwell and incubated 24 hours for adhesion. Cells were treated with HB-19 for 48 hours and labeled with BrdU (10 µM, 1 hour, 37°C), then they were trypsinized, fixed and treated with DNase (300 µg/ml, 1 hour, 37°C) before staining with anti-BrdU-FITC antibody and 7-AAD reagent. Cells were analyzed on a Becton Dickinson FACScan (fluorescence activated cell sorter), on FL1-H and FL3-H parameters for FITC and 7-AAD fluorescent dye respectively.

[2] = tested on: cells (surface nucleolin); assay: Internalization of nucleolin ligands (quoted); type: cell-based; details: HB-19, 20°C; compared with GROs
[3] = tested on: HUVECs; assay: Proliferation of VEGF stimulated HUVECs; type: cell-based, human; details: 0.25 nM VEGF165; 1 µM HB-19 or 0.1 µM mAb MS-3; 72 h; mean of triplicate
Procedure: Figure 6 Inhibition of in vitro and in vivo angiogenesis by HB-19. (A) HB-19 inhibits proliferation of HUVECs. Twenty-four hours after seeding HUVECs in 2% FBS, cells were stimulated by 0.25 nM VEGF165, in the absence or presence of 1 µM HB-19 or 0.1 µM anti-nucleolin mAb MS-3 as indicated. After 72 h, cell number was determined by crystal violet staining. The data are reported as the mean of triplicate samples. (B) HB-19 inhibits migration of HUVECs. Cell migration was studied using a modified Boyden chamber. Cells were incubated (4 h at 37°C) with VEGF165, HB-19, or anti-nucleolin mAb MS-3 as above. Cells that migrated through the pore to the lower filter surface were counted and are shown as number per microscopic field at ×100 magnification. The data are the mean of three independent high-power fields/well performed in duplicate in two independent experiments. […] Aortic endothelial (ABAE) cells in the absence or presence of 3 nM PTN, 0.5 nM VEGF165, and 3 nM FGF-2 were seeded on a three-dimensional collagen gel in complete medium. […] Tubular network structures were quantified using phase contrast microscopy (×100). […] Quantification of endothelial cell invasion into the Matrigel was determined and is expressed as a mean of five fields per section from 3 Matrigel-plug sections per mouse. The results are expressed as the mean of five mice per group. […]

[4] = tested on: HUVECs; assay: FACScan competition of HB-19/Btn binding to HUVECs; parameters: species or system human; details: 1 µM HB-19/Btn, 4 °C, competitor 50 µM
Procedure: Figure 3 Specific binding and entry of HB-19 in endothelial cells. (A) HB-19/Btn forms a stable complex with nucleolin expressed on the surface of HUVECs. Cells were incubated (45 min, 20°C) with 0, 1, 2, 4, 8 and 12 µM of HB-19/Btn before preparation of surface/cytoplasmic and nuclear extracts and recovery of surface nucleolin from the surface/cytoplasmic extracts as in Figure 2A. Material extracted from 2×10^7 and 2×10^6 cells was analyzed in panels Surface and Surface/Cytoplasm or Nucleus, respectively. Immunoblotting was with the anti-nucleolin mAb D3. (B) The specific binding of HB-19/Btn to HUVECs. The binding of 1 µM HB-19/Btn was studied at 4 °C by FACScan analysis. To show the specificity of binding, the reaction was carried out in the absence or presence of 50 µM HB-19, F3, or 9Arg peptides. The ordinate gives the relative cell number, whereas the abscissa gives the relative fluorescence intensity. (C) HB-19 entry in HUVECs. Cells were incubated with 5 µM of HB-19/Btn (1 hour, 37°C) before fixation in PFA (for surface binding) or PFA-Triton (for entry), respectively. Cells were then successively incubated with rabbit anti-biotin antibodies and goat Texas Red-conjugated anti-rabbit IgG, and processed for confocal microscopy. The scans of cells toward the middle cell layer are presented (with the DAPI stained nuclei).

## pseudo-tripeptide Lysψ(CH2N)-Pro-Arg coupled to a template (H2NLys-Lys-Lys-Gly-Pro-Lys-Glu-Lys-AhxCONH2) [HB-19, pseudopeptide presenting pentavalently the pseudo-tripeptide Lysψ(CH2N)-Pro-Arg coupled to a template]
[1]
  decrease of cells in S phase: 62%
  increase of cells in G1 phase: 9%
  increase of cells in G2/M phase: 31%
[2]
  localization at 20°C: remains aggregated at the plasma membrane
[3]
  inhibition of HUVEC proliferation: inhibited dramatically both of these events down to levels comparable to that of unstimulated cells
[4]
  prevention of HB-19/Btn binding: prevented by the excess HB-19
